Results: patent publication US10961198B2, “Farnesoid X receptor agonists and uses thereof” (Metacrine, Inc., priority 2017, dated 2021)

Target: hFXR (Homo sapiens (Human), UniProt Q96RI1)
Experiment: In Vitro FXR Assay (TK)
Assay type: cell-based
Settings: CV-1 cells transfected with hFXR, hRXR, TK-ECRE-luc and pCMX-YFP; incubated 18 hrs; luminescence; maximum efficacy <25% of the Fexarmine control classified as '+'
Description: Example B-1: In Vitro FXR Assay (TK)
CV-1 cells were seeded at a density of 2,000,000 cells in a T175 flask with DMEM+10% charcoal double-stripped FBS and incubated at 37° C. in 5% CO2 for 18 h (O/N).
After 18 h of incubation, the medium in the T175 flask was changed with fresh DMEM+10% charcoal super-stripped serum. In a polypropylene tube, 2500 μL OptiMEM (Life Technologies, Cat #31985-062) was combined with expression plasmids for hFXR, hRXR, TK-ECRE-luc and pCMX-YFP. The tube was then briefly vortexed and incubated at room temperature for 5 minutes. Transfection reagent (X-tremeGENE HP from Roche, Cat #06 366 236 001) was added to the OptiMEM/plasmid mixture vortexed and incubated at room temperature for 20 minutes. Following incubation, the transfection reagent/DNA mixture complex was added to cells in the T175 flask and the cells were incubated at 37° C. in 5% CO2 for 18 h (O/N).
Compounds were serially diluted in DMSO and added to transfected CV-1 cells. The cells were then incubated for 18 hrs. The next day cells were lysed and examined for luminescence.

Sequence of hFXR (Q96RI1 whole entry): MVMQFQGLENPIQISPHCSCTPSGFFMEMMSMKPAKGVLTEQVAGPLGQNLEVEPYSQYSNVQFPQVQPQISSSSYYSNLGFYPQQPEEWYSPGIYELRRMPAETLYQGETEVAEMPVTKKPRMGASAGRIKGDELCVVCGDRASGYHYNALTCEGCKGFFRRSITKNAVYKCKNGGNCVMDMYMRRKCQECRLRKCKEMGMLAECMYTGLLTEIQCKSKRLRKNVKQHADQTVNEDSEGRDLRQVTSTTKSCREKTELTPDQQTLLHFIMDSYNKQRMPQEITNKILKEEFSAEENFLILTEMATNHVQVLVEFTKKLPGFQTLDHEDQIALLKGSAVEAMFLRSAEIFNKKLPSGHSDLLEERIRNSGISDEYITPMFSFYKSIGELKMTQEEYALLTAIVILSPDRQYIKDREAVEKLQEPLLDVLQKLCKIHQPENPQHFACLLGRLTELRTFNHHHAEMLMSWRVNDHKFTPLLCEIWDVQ
Sequence of hFXR (P19793 whole entry partner): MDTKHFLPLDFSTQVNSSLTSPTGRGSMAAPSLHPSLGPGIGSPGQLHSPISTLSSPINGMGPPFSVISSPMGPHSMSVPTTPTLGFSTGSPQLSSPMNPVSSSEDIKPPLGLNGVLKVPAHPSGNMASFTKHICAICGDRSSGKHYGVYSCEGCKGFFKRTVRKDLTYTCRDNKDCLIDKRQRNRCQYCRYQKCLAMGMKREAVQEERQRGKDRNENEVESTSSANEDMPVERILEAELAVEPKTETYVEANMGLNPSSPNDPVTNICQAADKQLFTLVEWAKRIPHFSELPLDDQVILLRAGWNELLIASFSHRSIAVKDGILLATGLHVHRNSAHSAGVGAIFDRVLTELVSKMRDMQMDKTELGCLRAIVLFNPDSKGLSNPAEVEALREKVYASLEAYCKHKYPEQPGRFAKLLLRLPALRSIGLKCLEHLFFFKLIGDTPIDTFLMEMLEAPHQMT

Row | SMILES | EC50 [nM]
1 | COc1ccc([C@H]2CC[C@H](CN(c3cccc(-c4cnn(CC(C)C)c4)c3)C(=O)[C@H]3CC[C@H](O)CC3)CC2)cc1C [Compound 3.03, trans-4-Hydroxy-N-(3-(1-isobutyl-1H-pyrazol-4-yl)phenyl)-N-((trans-4-(4-methoxy-3-methylphenyl)cyclohexyl)methyl)cyclohexanecarboxamide] | ≤ 250
2 | COc1ccc([C@H]2CC[C@H](CN(c3cccc(-c4cnn(C(F)F)c4)c3)C(=O)[C@H]3CC[C@H](O)CC3)CC2)cc1C [Compound 3.11, trans-N-(3-(1-(Difluoromethyl)-1H-pyrazol-4-yl)phenyl)-4-hydroxy-N-((trans-4-(4-methoxy-3-methylphenyl)cyclohexyl)methyl)cyclohexanecarboxamide] | ≤ 250
3 | COc1ccc([C@H]2CC[C@H](CN(c3cccc(-c4cnn(C5CCC5)c4)c3)C(=O)[C@H]3CC[C@H](O)CC3)CC2)cc1C [Compound 3.08, trans-N-(3-(1-Cyclobutyl-1H-pyrazol-4-yl)phenyl)-4-hydroxy-N-((trans-4-(4-methoxy-3-methylphenyl)cyclohexyl)methyl)cyclohexanecarboxamide] | ≤ 250
4 | COc1ccc([C@H]2CC[C@H](CN(c3cccc(-c4cnn(C5CC5)c4)c3)C(=O)[C@H]3CC[C@H](O)CC3)CC2)cc1C#N [Compound 2.04, trans-N-((trans-4-(3-Cyano-4-methoxyphenyl)cyclohexyl)methyl)-N-(3-(1-cyclopropyl-1H-pyrazol-4-yl)phenyl)-4-hydroxycyclohexanecarboxamide] | ≤ 250
5 | CCn1cc(-c2cccc(N(C[C@H]3CC[C@H](c4ccc(OC)c(C#N)c4)CC3)C(=O)[C@H]3CC[C@H](O)CC3)c2)cn1 [Compound 2, trans-N-((trans-4-(3-Cyano-4-methoxyphenyl)cyclohexyl)methyl)-N-(3-(1-ethyl-1H-pyrazol-4-yl)phenyl)-4-hydroxycyclohexanecarboxamide] | ≤ 250
6 | COc1ccc(C23CCC(CN(c4cc(-c5cnn(C(C)C)c5)ccn4)C(=O)[C@H]4CC[C@H](O)CC4)(CC2)CC3)cc1C [Compound 2.09] | ≤ 250
7 | COc1ccc([C@H]2CC[C@H](CN(c3cccc(-c4cnn(C(C)C)c4)c3)C(=O)[C@H]3CC[C@H](N)CC3)CC2)cc1C [Compound 7, trans-4-Amino-N-(3-(1-isopropyl-1H-pyrazol-4-yl)phenyl)-N-((trans-4-(4-methoxy-3-methylphenyl)cyclohexyl)methyl)cyclohexanecarboxamide] | ≥ 1000
8 | COc1ccc([C@H]2CC[C@H](CN(c3cccc(-c4cnn(C(C)C)c4)c3)C(=O)[C@H]3CC[C@H](O)CC3)CC2)cc1C#N [Compound 2.03, trans-N-((trans-4-(3-Cyano-4-methoxyphenyl)cyclohexyl)methyl)-4-hydroxy-N-(3-(1-isopropyl-1H-pyrazol-4-yl)phenyl)cyclohexanecarboxamide] | ≤ 250
9 | Cc1cc([C@H]2CC[C@H](CN(c3cccc(-c4cnn(C5CC5)c4)c3)C(=O)[C@H]3CC[C@H](O)CC3)CC2)ccc1O [Compound 8, trans-N-(3-(1-Cyclopropyl-1H-pyrazol-4-yl)phenyl)-4-hydroxy-N-((trans-4-(4-hydroxy-3-methylphenyl)cyclohexyl)methyl)cyclohexanecarboxamide] | 250 to 1000
10 | COc1ccc([C@H]2CC[C@H](CN(c3cccc(-c4cnn(C5CC5)c4)c3)C(=O)[C@H]3CC[C@H](O)CC3)CC2)cc1C [Compound 3, trans-N-(3-(1-Cyclopropyl-1H-pyrazol-4-yl)phenyl)-4-hydroxy-N-((trans-4-(4-methoxy-3-methylphenyl)cyclohexyl)methyl)cyclohexanecarboxamide] | ≤ 250
11 | COc1ccc([C@H]2CC[C@H](CN(c3cccc(-c4ccn(C)n4)c3)C(=O)[C@H]3CC[C@H](O)CC3)CC2)cc1C [Compound 3.01, trans-4-Hydroxy-N-((trans-4-(4-methoxy-3-methylphenyl)cyclohexyl)methyl)-N-(3-(1-methyl-1H-pyrazol-3-yl)phenyl)cyclohexanecarboxamide] | ≥ 1000

Continued, values first:

Row | EC50 [nM] | SMILES
12 | ≤ 250 | COc1ccc([C@H]2CC[C@H](CN(c3cc(-c4cnn(C(C)C)c4)ccn3)C(=O)[C@H]3CC[C@H](O)CC3)CC2)cc1C#N [Compound 5.14, trans-N-((trans-4-(3-Cyano-4-methoxyphenyl)cyclohexyl)methyl)-4-hydroxy-N-(4-(1-isopropyl-1H-pyrazol-4-yl)pyridin-2-yl)cyclohexanecarboxamide]
13 | 250 to 1000 | COc1ccc([C@H]2CC[C@H](CN(c3cc(-c4cnn(C5CC5)c4)cc(C)n3)C(=O)[C@H]3CC[C@H](O)CC3)CC2)cc1C [Compound 5.26, trans-N-(4-(1-cyclopropyl-1H-pyrazol-4-yl)-6-methylpyridin-2-yl)-4-hydroxy-N-((trans-4-(4-methoxy-3-methylphenyl)cyclohexyl)methyl)cyclohexanecarboxamide]
14 | ≤ 250 | O=C([C@H]1CC[C@H](O)CC1)N(C[C@H]1CC[C@H](c2ccc3c(c2)OCO3)CC1)c1cccc(-c2cnn(C3CC3)c2)c1 [Compound 5.06, trans-N-((trans-4-(Benzo[d][1,3]dioxol-5-yl)cyclohexyl)methyl)-N-(3-(1-cyclopropyl-1H-pyrazol-4-yl)phenyl)-4-hydroxycyclohexanecarboxamide]
15 | ≥ 1000 | Cn1ccc2cc([C@H]3CC[C@H](CN(c4cccc(-c5cnn(C6CC6)c5)c4)C(=O)[C@H]4CC[C@H](O)CC4)CC3)ncc21 [Compound 5.21, trans-N-(3-(1-Cyclopropyl-1H-pyrazol-4-yl)phenyl)-4-hydroxy-N-((trans-4-(1-methyl-1H-pyrrolo[2,3-c]pyridin-5-yl)cyclohexyl)methyl)cyclohexanecarboxamide]
16 | 250 to 1000 | COc1ccc(C23CCC(CN(c4cccc(-c5cnn(C6CC6)c5)c4)C(=O)[C@H]4CC[C@H](N)CC4)(CC2)CC3)cc1C [Compound 7.01, trans-4-Amino-N-(3-(1-cyclopropyl-1H-pyrazol-4-yl)phenyl)-N-((4-(4-methoxy-3-methylphenyl)bicyclo[2.2.2]octan-1-yl)methyl)cyclohexanecarboxamide]
17 | ≤ 250 | COc1ccc([C@H]2CC[C@H](CN(c3cccc(-c4cnn(C(C)C)c4)c3)C(=O)[C@H]3CC[C@](C)(O)CC3)CC2)cc1C [Compound 5.27, (1r,4r)-4-Hydroxy-N-(3-(1-isopropyl-1H-pyrazol-4-yl)phenyl)-N-((trans-4-(4-methoxy-3-methylphenyl)cyclohexyl)methyl)-4-methylcyclohexanecarboxamide]
18 | 250 to 1000 | COc1ccc([C@H]2CC[C@H](CN(c3cc(-c4cnn(C5CC5)c4)ccn3)C(=O)[C@H]3CC[C@H](O)CC3)CC2)nc1C#N [Compound 5.22, trans-N-((trans-4-(6-Cyano-5-methoxypyridin-2-yl)cyclohexyl)methyl)-N-(4-(1-cyclopropyl-1H-pyrazol-4-yl)pyridin-2-yl)-4-hydroxycyclohexanecarboxamide]
19 | ≤ 250 | COc1ccc([C@H]2CC[C@H](CN(c3cccc(-c4cnn(C5CC5)c4)c3)C(=O)[C@H]3CC[C@H](O)CC3)CC2)nc1C [Compound 5.04, trans-N-(3-(1-cyclopropyl-1H-pyrazol-4-yl)phenyl)-4-hydroxy-N-((trans-4-(5-methoxy-6-methylpyridin-2-yl)cyclohexyl)methyl)cyclohexanecarboxamide]
